These results are taken from PubChem BioAssay (NCI).

Among the test systems are K-562 leukemia; BT-549 breast; SN12C renal; MALME-3M melanoma; UACC-257 melanoma; HCT-15 colon; SK-MEL-2 melanoma; HCC-2998 colon.
Holding throughout (assay): NCI tumour cell line growth inhibition, 48 h

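All cell lines were grown in 96-well plates and treated with compound for 48 hours. Abbreviation: GI50, concentration required for 50% inhibition of growth. TGI: concentration producing complete growth inhibition.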

Turning to `CN1C(NNC(=O)c2cccnc2)=NS(=O)(=O)c2cc(Cl)ccc21`, the GI50 in the test with K-562 leukemia, in the test with BT-549 breast, with SN12C renal, in the test on MALME-3M melanoma, in the test with UACC-257 melanoma and in the test with HCT-15 colon was over 100 µM throughout. The GI50 with SK-MEL-2 melanoma and in the test with HCC-2998 colon was over 100 µM each time. In addition, the TGI with K-562 leukemia, in the test with BT-549 breast, in the test with SN12C renal, in the test on MALME-3M melanoma, in the test with UACC-257 melanoma and with HCT-15 colon was over 100 µM each time. Further, the TGI with SK-MEL-2 melanoma and with HCC-2998 colon was over 100 µM each time.
`Oc1ccc(Oc2cnc3ccccc3n2)cc1`: the GI50 in the test on K-562 leukemia was over 100 µM; in the test with BT-549 breast, 12.3 µM; in the test on SN12C renal, over 100 µM; in the test with MALME-3M melanoma, over 100 µM; in the test on UACC-257 melanoma, over 100 µM; with HCT-15 colon, over 100 µM. The GI50 in the test on SK-MEL-2 melanoma and with HCC-2998 colon was over 100 µM throughout. Moreover, the TGI was over 100 µM in the test on K-562 leukemia; 57.5 µM in the test on BT-549 breast; over 100 µM with SN12C renal; over 100 µM in the test with MALME-3M melanoma; over 100 µM with UACC-257 melanoma; over 100 µM in the test on HCT-15 colon. Besides, the TGI with SK-MEL-2 melanoma and in the test with HCC-2998 colon was over 100 µM each time.
`O=C1c2ccccc2C(=O)c2c(NCCN=Cc3ccccc3O)cccc21`: the GI50 with K-562 leukemia is 2.47 µM; in the test with BT-549 breast, 2.81 µM; in the test on SN12C renal, 8.28 µM; in the test on MALME-3M melanoma, 1.55 µM; in the test on UACC-257 melanoma, 4.84 µM; with HCT-15 colon, 4.03 µM. The GI50 in the test with SK-MEL-2 melanoma is 4.42 µM; with HCC-2998 colon, 7.82 µM. Also, the TGI in the test on K-562 leukemia is over 45.1 µM; with BT-549 breast, 8.51 µM; with SN12C renal, over 54.1 µM; in the test on MALME-3M melanoma it was 3.84 µM; with UACC-257 melanoma, 13.4 µM; in the test on HCT-15 colon it was 16.7 µM. Also, the results for the TGI in the test on SK-MEL-2 melanoma and with HCC-2998 colon were 11.3 µM and 22.6 µM, respectively.
For the compound `Nc1c(C(=O)Nc2ccccc2Cl)sc2nc3c(cc12)C(=O)CCC3`, the GI50 in the test on K-562 leukemia was 0.493 µM; in the test on BT-549 breast, over 100 µM; with SN12C renal it was over 100 µM; in the test with MALME-3M melanoma, 2.78 µM; in the test on UACC-257 melanoma it was 1.62 µM; in the test on HCT-15 colon, 0.626 µM. For the same compound, the figures for the GI50 in the test with SK-MEL-2 melanoma and with HCC-2998 colon were 1.09 µM and 21.2 µM, respectively. Besides, the TGI in the test with K-562 leukemia, in the test on BT-549 breast, in the test with SN12C renal, in the test on MALME-3M melanoma, with UACC-257 melanoma and with HCT-15 colon was over 100 µM throughout. Also, the TGI in the test on SK-MEL-2 melanoma and in the test with HCC-2998 colon was over 100 µM throughout.
With `Cc1noc2c1-c1ccccc1C(c1ccc(Cl)cc1)=N[C@H]2CC(N)=O`, the GI50 with K-562 leukemia was 4.67 µM; in the test with BT-549 breast, 10.9 µM; in the test on SN12C renal, 38.2 µM; in the test on MALME-3M melanoma, 5.17 µM; with UACC-257 melanoma, 7.4 µM; with HCT-15 colon, 2.49 µM. The GI50 with SK-MEL-2 melanoma is 18.1 µM; in the test on HCC-2998 colon it was 9.5 µM. Besides, the TGI in the test on K-562 leukemia, in the test on BT-549 breast, with SN12C renal, in the test on MALME-3M melanoma, with UACC-257 melanoma and in the test with HCT-15 colon was over 100 µM throughout. In addition, the TGI with SK-MEL-2 melanoma and with HCC-2998 colon was over 100 µM each time.
Regarding `COc1cc2c3c(n(CCCN(CCO)CCO)c(=O)c2cc1OC)-c1cc2c(cc1C3=O)OCO2`, the GI50 was under 0.01 µM in the test on K-562 leukemia; 0.586 µM in the test on BT-549 breast; under 0.01 µM with SN12C renal; 0.67 µM with MALME-3M melanoma; 1.55 µM in the test with UACC-257 melanoma; 0.838 µM with HCT-15 colon. For the same compound, the GI50 is 8.79 µM with SK-MEL-2 melanoma and under 0.01 µM in the test on HCC-2998 colon. For the same compound, the TGI in the test with BT-549 breast is 13.6 µM; with SN12C renal, 0.285 µM; in the test on MALME-3M melanoma, 23.4 µM; in the test with UACC-257 melanoma, over 22.5 µM; with HCT-15 colon, 20.7 µM; with SK-MEL-2 melanoma, over 33 µM. The TGI in the test on HCC-2998 colon was under 0.01 µM.
Consider `CC(Cl)CN1c2ccccc2Sc2ccc(Cl)cc21` (centres undefined), for which the TGI in the test with K-562 leukemia, with BT-549 breast, in the test on SN12C renal, with MALME-3M melanoma, with UACC-257 melanoma and in the test with HCT-15 colon was over 10 µM throughout. In addition, the TGI in the test on SK-MEL-2 melanoma and with HCC-2998 colon was over 10 µM in each case.
In the case of `Cc1sc2c(c1C)C(c1ccc(Cl)cc1)=N[C@@H](CC(=O)Nc1ccc(OCCOCCOCCOCCNc3cccc4c3C(=O)N(C3CCC(=O)NC3=O)C4=O)cc1)c1nnc(C)n1-2` (some centres undefined), the GI50 was 0.293 µM in the test with K-562 leukemia; under 0.0228 µM with BT-549 breast; over 100 µM in the test with MALME-3M melanoma; 10.6 µM in the test with UACC-257 melanoma; 0.394 µM in the test on HCT-15 colon; 0.347 µM with SK-MEL-2 melanoma. Moreover, the GI50 in the test on HCC-2998 colon is 0.0796 µM. The TGI with K-562 leukemia, in the test on BT-549 breast, with SN12C renal, with MALME-3M melanoma, with UACC-257 melanoma and in the test on HCT-15 colon was over 100 µM in each case. Besides, the TGI with SK-MEL-2 melanoma and in the test on HCC-2998 colon was over 100 µM each time.
Take `CCOC(=O)c1sc(NC(=O)COc2cccc(/C=C3\CCc4cc(OC)ccc4C3=O)c2)nc1C`: the GI50 in the test on K-562 leukemia is 1.94 µM; in the test on BT-549 breast it was 3.26 µM; in the test on SN12C renal it was 3.89 µM; with MALME-3M melanoma it was 47 µM; in the test with UACC-257 melanoma it was 9.79 µM; in the test with HCT-15 colon it was 2.93 µM. Besides, the GI50 with SK-MEL-2 melanoma is 5.38 µM; in the test on HCC-2998 colon, 8.59 µM. In addition, the TGI with K-562 leukemia was 6.26 µM; with BT-549 breast, over 100 µM; in the test with SN12C renal, over 100 µM; in the test on MALME-3M melanoma, over 100 µM; in the test on UACC-257 melanoma, over 100 µM; in the test with HCT-15 colon, over 100 µM. For the same compound, the figures for the TGI with SK-MEL-2 melanoma and with HCC-2998 colon were over 100 µM and 38.8 µM, respectively.
